From US5238936A, “Trisubstituted triazines” (Adir et Compagnie, priority 1991, dated 1993)

Key:
line DC-3F/AD [1] = test: Flow cytometry: intracellular accumulation of adriamycin by cells of the line DC-3F/AD; assay type: cell-based, Chinese hamster; conditions: ADR 50 μM, 5 hours
Source text: Also measured was the effect of the compounds on the intracellular concentration of the cytotoxic agent. In effect, the known compounds for reversing MDR act by increasing the intracellular concentration of cytotoxic agent. This effect is the consequence of inhibiting the action of gP 170 which is responsible for the efflux of the drug.
By measuring that fluorescence, it is thus possible to obtain a relative measurement of the intracellular concentration of ADR.
The cells 500×10^3 per ml were exposed simultaneously to ADR at a fixed concentration (50 μM) and to the tested compounds at various concentrations. After 5 hours' incubation, the intracellular accumulation of ADR was evaluated by FCM. […] The analysis of each of the samples was carried out on a total of 10,000 cells at a rate of 1,000 cells per second.
The results were presented in the form of linear histograms of the intracellular ADR fluorescence.
Expression of the results: for each of the histograms the mean fluorescence per channel (MEAN) was determined by the information system of the apparatus. For all experiments:
a negative control (cells without ADR) fixed the autofluorescence threshold.
a positive control (cells with ADR) determined the MEAN value=MN1.
the "test" tubes (cells with ADR and with compound) were used to determine, for each of the compounds and at each of the concentrations, the MEAN values=MN2.
The results are expressed in the form of variations from the mean fluorescence obtained for each of the "test" tubes (MN2) in relation to the mean fluorescence obtained with the positive control (MNl): VAR-MEAN=MN2-MN1. The parameter expressed is thus the increase in ADR fluorescence in the presence of the tested compounds.

line DC-3F/AD [2] = test: Cytotoxicity (Microculture Tetrazolium Assay): reversal of resistance to actinomycin D, line DC-3F/AD; assay type: cell-based, Chinese hamster; conditions: 4 days
Source text: The pharmacological study of the compounds of the present invention consisted first of all in an evaluation in vitro carried out on resistant cells. The parameter measured is the cytotoxicity of the antitumour drug, quantified in the absence and in the presence of the reversing compound.
The cells are distributed on microplates and exposed to the cytotoxic compounds (actinomycin D for line DC-3F/AD and adriamycin for line KB-Al) at 9 concentrations (2 by 2 series dilutions). The compounds tested for their capacity to reverse MDR are added at the same time as the cytotoxic agent.
The cells are then incubated for 4 days. […] The results are expressed as a reversion factor (RF): PG,29 [formula]

resistant line P/388/VCR = test: Antitumour activity in vivo: increase in antitumour activity of vincristine on murine leukaemia P 388/VCR; design: species or system murine; female B6D2Fl mice; conditions: with vincristine […] i.p., no compound: 146 ± 2
Source text: This study was completed by an in vivo study, using a murine leukaemia resistant to vincristine (P/388/VCR) and using the compounds in association with vincristine.
The sensitive parent line P 388 (murine leukaemia) and the sub-line resistant to vincristine, P 388/VCR, were supplied by NCI (Frederick, USA). The tumour cells (10^6 cells) were inoculated on day 0 into the intraperitoneal cavity of female B6D2Fl mice (Iffa Credo, France) weighing from 18 to 20 g (groups of 8 to 10 animals).
Every day for 4 days, starting from day 1, the animals received: […]
30 to 60 minutes later, an administration by the i.p. route of 0.25 mg/kg of vincristine (used as a reference antitumour agent).
The tumour activity is expressed as follows: [formula]
The values are mean values obtained in independent experiments (± sem when n is greater than or equal to 3).

Plasmodium falciparum = conditions: resistance to chloroquine; cited from earlier work
[3] = 50 mg/kg i.p. daily for 4 days, ± sem
[4] = 100 mg/kg i.p. daily for 4 days, ± sem

| Structure (SMILES) | VAR-MEAN (increase in ADR fluorescence), line DC-3F/AD (line DC-3F/AD [1]; 1.0 μM compound) | VAR-MEAN (increase in ADR fluorescence), line DC-3F/AD (line DC-3F/AD [1]; 5.0 μM compound) | VAR-MEAN (increase in ADR fluorescence), line DC-3F/AD (line DC-3F/AD [1]; 10 μM compound) | VAR-MEAN (increase in ADR fluorescence), line DC-3F/AD (line DC-3F/AD [1]; […] compound) | Reversion factors (cytotoxicity) with the line DC-3F/AD (line DC-3F/AD [2]; 1 μM compound) | Reversion factors (cytotoxicity) with the line DC-3F/AD (line DC-3F/AD [2]; 5 μM compound) | T/C % (resistant line P/388/VCR; [3]) [%] | T/C % (resistant line P/388/VCR; [4]) [%] | Reversion factors (cytotoxicity) with the line DC-3F/AD (line DC-3F/AD [2]; 0.5 μM compound) | sensitivity of a chloroquine-resistant line (Plasmodium falciparum) | T/C % (resistant line P/388/VCR; 75 mg/kg i.p. daily for 4 days) [%] |
| --- | --- | --- | --- | --- | --- | --- | --- | --- | --- | --- | --- |
| C=CCNc1nc(NC)nc(N2CCC(NCC3c4ccccc4COc4ccccc43)CC2)n1 (racemic) [Example 28, 2-allylamino-4-methylamino-6-{4-[((R,S)-6,11-dihydro-dibenzo[b,e]oxepin-11-yl)methylamino]piperidin-1-yl}-1,3,5-triazine] | 4.3 | 16.8 | 21.5 | 12.8 | 18.1 | 600.4 | 170 | 171 | – | – | – |
| C=CCNc1nc(NCC)nc(N2CCC(NCC3c4ccccc4COc4ccccc43)CC2)n1 (racemic) [Example 29, 2-allylamino-4-ethylamino-6-{4-[((R,S)-6,11-dihydrodibenzo[b,e]oxepin-11-yl)methylamino]piperidin-1-yl}-1,3,5-triazine] | 6.4 | 18.0 | 21.8 | 13.3 | 33.8 | 1327.5 | 171 ± 6 | 185 ± 7 | 1.7 | – | – |
| C=CCNc1nc(NCC=C)nc(N2CCC(NCC3c4ccccc4CCc4cc(OC)ccc43)CC2)n1 (racemic) [Example 31, 2,4-diallylamino-6-{4-[((R,S)-10,11-dihydro-5H-2-methoxydibenzo[a,d]cyclohepten-5-yl)methylamino]piperidin-1-yl)-1,3,5-triazine] | 9.4 | 30.8 | – | 26.6 | 85.9 | 1913.4 | 159 | 177 | 3.1 | – | – |
| C=CCNc1nc(NCC=C)nc(N2CCC(NCC3c4ccccc4CCc4ccccc43)CC2)n1 [Example 3, 2,4-Diallylamino-6-{4-[(10,11-dihydro-5H-dibenzo[a,d]cyclohepten-5-yl)methylamino]piperidin-1-yl}-1,3,5-triazine] | 20.2 | 28.3 | 29.6 | 25.8 | 236 | 3187 | 208 ± 23 | 193 ± 3 | 43 | – | – |
| C=CCNc1nc(NCCC)nc(N2CCC(NCC3c4ccccc4CCc4ccccc43)CC2)n1 [Example 5, 2-allylamino-4-propylamino-6-{4-[(10,11-dihydro-5H-dibenzo[a,d]cyclohepten-5-yl)methylamino]piperidin-1-yl}-1,3,5-triazine] | 17.9 | 27.3 | 24.9 | 23.5 | 81 | 2753 | 184 | 195 | 3.8 | – | – |
| C=CCNc1nc(NCC=C)nc(N2CCC(NCC3c4ccccc4C=Cc4ccccc43)CC2)n1 [Example 11, 2,4-diallylamino-6-{4-[(5H-dibenzo[a,d]cyclohepten-5-yl)methylamino]piperidin-1-yl}-1,3,5-triazine] | 12.7 | 24.5 | 25.8 | 20.2 | 26 | 1408 | 156 | 168 ± 15 | 2 | – | – |
| C=CCNc1nc(NCC=C)nc(N2CCC(NCC3c4ccccc4CCCc4ccccc43)CC2)n1 [Example 20, 2,4-diallylamino-6-{4-[(5,6,7,12-tetrahydrodibenzo[a,d]cycloocten-12-yl)methylamino]piperidin-1-yl}-1,3,5-triazine] | 8.2 | 22.3 | 21.6 | 19.7 | 52 | 2951 | 161 | 174 | 3.4 | – | – |
| C=CCNc1nc(NCC)nc(N2CCC(NCC3c4ccccc4CCc4ccccc43)CC2)n1 [Example 22, 2-allylamino-4-ethylamino-6-{4-[(10,11-dihydro-5H-dibenzo[a,d]cyclohepten-5-yl)methylamino]piperidin-1-yl}-1,3,5-triazine] | 15.1 | 23.1 | 24.9 | 21.9 | 177 | 2499 | 159 | 165 | 32 | – | – |
| COc1ccc(CCN(C)CCCC(C#N)(c2ccc(OC)c(OC)c2)C(C)C)cc1OC (centres unmarked) [verapamil, reference compound] | 2.1 | 5.6 | 8.9 | 4.0 | – | – | 164 | – | – | restores the sensitivity of a resistant line | 177 |
